Laboratory results reported in paper PMC11258189, “Estrogenic, androgenic, and genotoxic activities of zearalenone and deoxynivalenol in in vitro bioassays including exogenous metabolic activation” (Mycotoxin Research, 2024).
Like-named read-outs stand apart in the source and are kept apart here.

How the values were obtained:
[1] = molecular target: T1, human androgen receptor (Homo sapiens, UniProt P10275); type: cell-based
T1 construct: host or cells: Chinese hamster ovary (CHO) cells, AR-EcoScreen GR KO M1, stably transfected, glucocorticoid receptor knocked out
T1 sequence (P10275 1-920): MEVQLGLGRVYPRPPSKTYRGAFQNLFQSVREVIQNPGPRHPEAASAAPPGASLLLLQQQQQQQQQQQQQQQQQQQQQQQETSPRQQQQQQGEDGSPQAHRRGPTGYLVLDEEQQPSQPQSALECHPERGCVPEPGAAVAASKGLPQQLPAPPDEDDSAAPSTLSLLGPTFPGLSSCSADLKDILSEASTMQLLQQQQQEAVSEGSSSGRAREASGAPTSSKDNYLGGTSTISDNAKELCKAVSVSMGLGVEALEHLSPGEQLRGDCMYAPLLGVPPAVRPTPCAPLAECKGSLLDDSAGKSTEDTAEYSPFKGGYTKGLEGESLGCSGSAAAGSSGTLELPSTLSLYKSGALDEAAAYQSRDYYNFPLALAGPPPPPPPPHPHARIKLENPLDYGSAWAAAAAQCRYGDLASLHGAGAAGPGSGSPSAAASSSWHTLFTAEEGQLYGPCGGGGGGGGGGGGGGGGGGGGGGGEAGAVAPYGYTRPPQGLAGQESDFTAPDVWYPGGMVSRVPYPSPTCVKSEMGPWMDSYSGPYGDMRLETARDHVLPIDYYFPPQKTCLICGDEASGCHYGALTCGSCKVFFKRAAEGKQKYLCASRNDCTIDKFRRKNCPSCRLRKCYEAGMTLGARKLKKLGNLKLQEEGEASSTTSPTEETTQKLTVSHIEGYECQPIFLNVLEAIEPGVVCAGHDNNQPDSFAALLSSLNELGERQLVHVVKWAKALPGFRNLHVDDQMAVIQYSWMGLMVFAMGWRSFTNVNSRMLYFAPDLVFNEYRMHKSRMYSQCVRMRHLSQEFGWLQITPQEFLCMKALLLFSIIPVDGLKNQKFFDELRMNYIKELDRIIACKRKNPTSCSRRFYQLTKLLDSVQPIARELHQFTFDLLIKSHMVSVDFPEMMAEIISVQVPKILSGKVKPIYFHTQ

[2] = test system: estrogen receptor (ER)
[3] = test system: estrogen receptor (ER); type: cell-based, human
[4] = molecular target: T1, human androgen receptor; type: cell-based; remark: listed apart in the source
[5] = parameters: method as in Drzymala et al. [2015]; conditions: ref Drzymala et al. [2015]; cited from earlier work
[6] = test system: TK6 cells; conditions: for Micronuclei formation (% MN) versus vehicle controls: 5 h exposure, alone, with S9 alone or S9 with cofactors, ZEN 6.25 and 12.50 µM, DON 0.78 and 1.56 µM; for Micronuclei formation (% MN) versus vehicle control: non-cytotoxic test concentrations
[7] = test system: TK6 cells; parameters: method as in Takakura et al. [2014]; conditions: concentrations below 12.5 µM, 3 h of treatment, with or without human and rat liver S9; ref Takakura et al. [2014]; cited from earlier work
[8] = test system: AR; parameters: method as in Molina-Molina et al. [2014]; conditions: ref Molina-Molina et al. [2014], cited from earlier work; for AR antagonistic effect IC50: androgen-sensitive PALM cells
[9] = parameters: method as in Drzymala et al. [2014]; conditions: rat liver microsomes, presence of NADPH, after 60 min; ref Drzymala et al. [2014]; cited from earlier work
[10] = DON compounds, S9 + PHI + PHII cofactors, [95% CI]
[11] = DON compounds, S9 + PHII cofactors, [95% CI]
[12] = DON compounds, S9 alone, [95% CI]
[13] = DON compounds, no MAS, [95% CI]
[14] = without exogenous MAS, initial concentration-range finding trials, 24 h
[15] = DON compounds, S9 + PHI + PHII cofactors
[16] = DON compounds, S9 + PHII cofactors
[17] = 24 h continuous exposure, without MAS
[18] = ZEN compounds, S9 + PHI + PHII cofactors, [95% CI]
[19] = ZEN compounds, S9 + PHI cofactors, [95% CI]
[20] = ZEN compounds, S9 alone, [95% CI]
[21] = ZEN compounds, no MAS (S9 −, PHI −, PHII −), [95% CI]
[22] = ZEN compounds, no MAS, [95% CI]

SMILES: CC(=O)O[C@@H]1C[C@]2(C)[C@@]3(CO)[C@H](O)C(=O)C(C)=C[C@H]3O[C@H]1[C@@]21CO1 [3-Ac-DON, 3-acetyl deoxynivalenol]
- AR agonism EC10 [1, 10]: 0.91 [0.65,1.35] µM
- AR agonism EC10 [1, 11]: 0.63 [0.52,0.78] µM
- AR agonism EC10 [1, 12]: 1.07 [0.91,1.23] µM
- AR agonism EC10 [1, 13]: 1.11 [0.95,1.26] µM
- AR agonism EC10 [1, 14]: 1.31 µM
- Estrogenicity relative to α-ZEL (times lower) [2]: ~10^5 times
- ER agonism EC10 [2, 15]: <LOD
- ER agonism EC10 [2, 16]: <LOD
- ER agonism EC10 [2, 12]: 0.53 [0.49,0.59] µM
- ER agonism EC10 [2, 13]: 0.45 [0.41,0.49] µM
- ER agonism, response as % of the maximum response of E2 in the assay ([2]; without MAS): 30%
- ER bioassay EC10 (estrogenic) ([2]; without MAS, abstract): 310 nM
- ER agonism EC10 [2, 14]: 310,000 pM
- ER antagonism IC30 [3, 10]: <LOD
- ER antagonism IC30 [3, 11]: <LOD
- ER antagonism IC30 [3, 12]: <LOD
- ER antagonism IC30 [3, 13]: <LOD
- ER antagonism IC30 [3, 14]: <LOD
- AR antagonism IC30 [4, 15]: <LOD
- AR antagonism IC30 [4, 16]: <LOD
- AR antagonism IC30 ([4]; DON compounds, S9 alone): <LOD
- AR antagonism IC30 ([4]; DON compounds, no MAS): <LOD
- AR antagonism IC30 [4, 14]: <LOD

SMILES: CC(=O)OC[C@]12[C@H](O)C(=O)C(C)=C[C@H]1O[C@@H]1[C@H](O)C[C@@]2(C)[C@]12CO2 [15-Ac-DON, 15-acetyl deoxynivalenol]
- AR agonism EC10 [1, 10]: 0.52 [0.45,0.62] µM
- AR agonism EC10 [1, 11]: 0.50 [0.45,0.56] µM
- AR agonism EC10 [1, 12]: 0.70 [0.62,0.76] µM
- AR agonism EC10 [1, 13]: 0.81 [0.74,0.87] µM
- AR agonism EC10 [1, 14]: 0.77 µM
- ER agonism EC10 [2, 15]: <LOD
- ER agonism EC10 [2, 16]: <LOD
- ER agonism EC10 [2, 12]: <LOD
- ER agonism EC10 [2, 13]: <LOD
- ER agonism EC10 [2, 14]: <LOD
- ER antagonism IC30 [3, 10]: 0.48 [0.30,0.72] µM
- ER antagonism IC30 [3, 11]: 0.24 [0.18,0.32] µM
- ER antagonism IC30 [3, 12]: 1.11 [0.81,1.38] µM
- ER antagonism IC30 [3, 13]: 1.09 [0.98, 1.20] µM
- ER antagonism IC30 [3, 14]: 0.99 µM
- AR antagonism IC30 [4, 15]: <LOD
- AR antagonism IC30 [4, 16]: <LOD
- AR antagonism IC30 ([4]; DON compounds, S9 alone): <LOD
- AR antagonism IC30 ([4]; DON compounds, no MAS): <LOD
- AR antagonism IC30 [4, 14]: <LOD

SMILES: CC1CCCC(=O)CCC/C=C/c2cc(O)c(O)c(O)c2C(=O)O1 (stereo not drawn) [15-OH-ZEN]
- Estrogenic potency compared to ZEN, set at 1 [5]: 0.02

SMILES: CC1=C[C@H]2O[C@@H]3[C@H](O)C[C@](C)([C@@]2(CO)[C@H](O)C1=O)[C@]31CO1 [DON, deoxynivalenol]
- AR agonism EC10 [1, 10]: 0.45 [0.39,0.52] µM
- AR agonism EC10 [1, 11]: 0.38 [0.32,0.46] µM
- AR agonism EC10 [1, 12]: 0.84 [0.72,0.98] µM
- AR agonism EC10 [1, 13]: 0.87 [0.81,0.93] µM
- AR agonism EC10 [1, 14]: 0.83 µM
- ER agonism EC10 [2, 15]: <LOD
- ER agonism EC10 [2, 16]: <LOD
- ER agonism EC10 [2, 12]: <LOD
- ER agonism EC10 [2, 13]: <LOD
- ER agonism EC10 [2, 14]: <LOD
- ER antagonism IC30 [3, 10]: 0.37 [0.25,0.58] µM
- ER antagonism IC30 [3, 11]: 0.25 [0.18,0.38] µM
- ER antagonism IC30 [3, 12]: 0.75 [0.54,1.05] µM
- ER antagonism IC30 [3, 13]: 0.81 [0.69,1.00] µM
- ER antagonism IC30 [3, 14]: 0.91 µM
- AR antagonism IC30 [4, 15]: <LOD
- AR antagonism IC30 [4, 16]: <LOD
- AR antagonism IC30 ([4]; DON compounds, S9 alone): <LOD
- AR antagonism IC30 ([4]; DON compounds, no MAS): <LOD
- AR antagonism IC30 [4, 14]: <LOD
- Micronuclei formation (% MN) versus vehicle controls [6]: neither ZEN nor DON alone or with the S9 alone or with cofactors had any statistically significant effect on % MN
- Micronuclei formation (% MN) versus vehicle control [6, 17]: No statistically significant increases in % MN
- MN formations [7]: did not induce any significant MN formations

SMILES: C[C@]12CC[C@@H]3c4ccc(O)cc4CC[C@H]3[C@@H]1CC[C@@H]2O [E2, 17β-estradiol, reference compound]
- ER agonistic activity after treatment of cells with only S9 [2]: reduction of ER agonistic activity

SMILES: C[C@H]1CCCC(=O)CCC/C=C/c2cc(O)cc(O)c2C(=O)O1 [ZEN, zearalenone]
- AR agonism EC10 ([1]; ZEN compounds, S9 + PHI + PHII cofactors): <LOD
- AR agonism EC10 ([1]; ZEN compounds, S9 + PHI cofactors): <LOD
- AR agonism EC10 ([1]; ZEN compounds, S9 alone): <LOD
- AR agonism EC10 ([1]; ZEN compounds, no MAS): <LOD
- AR agonism EC10 [1, 14]: <LOD
- ER agonism EC10 [2, 18]: 6470 pM
- ER agonism EC10 [2, 19]: 984 [740,1 279] pM
- ER agonism EC10 [2, 20]: 63.3 [56.2,97.2] pM
- ER agonism EC10 [2, 21]: 46.5 [29.5,72.4] pM
- ER agonism EC10 value range converted to a concentration range in a water sample ([2]; converted from 30–40 pM): 0.01 to 0.012 ng/mL
- ER agonism EC10 converted to concentration in a water sample enriched 50 times ([2]; water sample enriched 50 times): approximately 0.2 ng/L
- ER agonism EC10 [2, 14]: 30 to 40 pM
- ER agonism EC10 ([2]; without exogenous MAS, initial concentration-range finding trials, 24 h, listed as Zearalenone (ZEN)): 34.07 pM
- ER antagonism IC30 [3, 19]: 10.3 [8.71,11.8] µM
- ER antagonism IC30 [3, 20]: 3.41 [2.40,4.68] µM
- ER antagonism IC30 [3, 22]: 2.92 [2.09,3.89] µM
- ER antagonism IC30 [3, 14]: 2.85 µM
- Androgenic activities ([8]; PALM cells, 40 h of exposure, concentrations up to 10 µM): no androgenic activities were detected
- AR antagonistic effect IC50 [8]: micromolar range
- AR antagonism IC30 [4, 18]: 18.0 [13.8,23.4] µM
- AR antagonism IC30 [4, 19]: 7.33 [6.31,8.13] µM
- AR antagonism IC30 [4, 20]: 2.14 [1.82,2.45] µM
- AR antagonism IC30 [4, 22]: 2.37 [1.95,2.75] µM
- AR antagonism IC30 [4, 14]: 3.30 µM
- Micronuclei formation (% MN) versus vehicle controls [6]: neither ZEN nor DON alone or with the S9 alone or with cofactors had any statistically significant effect on % MN
- Micronuclei formation (% MN) versus vehicle control [6, 17]: statistically significant increase in % MN
- Test concentration with statistically significant increase in % MN (highest non-cytotoxic test concentration) ([6]; 24 h continuous exposure, without MAS, p-value of 0.0007): 12.5 µM
- Decrease of substrate concentration to (% remaining) [9]: approximately 40%

SMILES: C[C@H]1CCC[C@H](O)CCC/C=C/c2cc(O)cc(O)c2C(=O)O1 [α-ZEL, α-Zearalenol]
- AR agonism EC10 [1]: <LOD
- Estrogenic potency relative to ZEN (times more potent) [2]: ~10 times
- ER agonism EC10 [2, 19]: 49.3 [30.2,75.9] pM
- ER agonism EC10 [2, 20]: 4.24 [2.82,6.31] pM
- ER agonism EC10 [2, 21]: 3.70 [2.51,5.37] pM
- ER agonism EC10 [2, 14]: 3.59 pM
- ER antagonism IC30 [3, 18]: 5.10 [2.88,8.13] µM
- ER antagonism IC30 [3, 19]: 2.42 [1.35,3.63] µM
- ER antagonism IC30 [3, 20]: 1.75 [0.69,3.02] µM
- ER antagonism IC30 [3, 22]: 1.03 [0.33,1.78] µM
- ER antagonism IC30 [3, 14]: 1.39 µM
- AR antagonistic effect IC50 [8]: micromolar range
